The experiment concerns the target T1, Recombinant full length human OGA enzyme (Homo sapiens, UniProt O60502).
T1 construct: Recombinant full length human OGA enzyme was purchased from Origene; purchased Origene
T1 sequence (O60502 1-916): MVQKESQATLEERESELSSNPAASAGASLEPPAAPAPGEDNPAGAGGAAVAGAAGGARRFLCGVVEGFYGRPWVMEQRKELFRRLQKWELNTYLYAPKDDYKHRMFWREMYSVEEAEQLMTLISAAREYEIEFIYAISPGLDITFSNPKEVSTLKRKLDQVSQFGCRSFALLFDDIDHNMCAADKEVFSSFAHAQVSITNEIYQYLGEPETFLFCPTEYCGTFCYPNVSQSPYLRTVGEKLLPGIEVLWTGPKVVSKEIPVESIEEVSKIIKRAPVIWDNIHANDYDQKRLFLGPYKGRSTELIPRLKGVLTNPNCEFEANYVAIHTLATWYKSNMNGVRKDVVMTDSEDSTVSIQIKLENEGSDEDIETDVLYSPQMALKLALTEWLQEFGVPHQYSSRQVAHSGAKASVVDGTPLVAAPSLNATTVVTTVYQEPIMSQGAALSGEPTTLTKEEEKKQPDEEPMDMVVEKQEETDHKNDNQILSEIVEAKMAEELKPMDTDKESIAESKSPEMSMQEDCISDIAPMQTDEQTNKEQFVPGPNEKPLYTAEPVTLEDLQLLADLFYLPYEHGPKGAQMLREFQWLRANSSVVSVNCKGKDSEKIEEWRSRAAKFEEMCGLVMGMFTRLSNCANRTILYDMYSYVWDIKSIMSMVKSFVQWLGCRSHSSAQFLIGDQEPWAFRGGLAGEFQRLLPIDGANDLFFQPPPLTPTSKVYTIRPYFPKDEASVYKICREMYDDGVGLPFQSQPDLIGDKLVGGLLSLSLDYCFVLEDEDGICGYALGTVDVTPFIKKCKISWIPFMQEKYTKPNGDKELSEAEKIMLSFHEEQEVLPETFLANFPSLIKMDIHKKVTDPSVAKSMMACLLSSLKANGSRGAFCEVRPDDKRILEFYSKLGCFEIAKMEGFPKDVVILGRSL
Put plainly: OGA Enzyme Inhibition Biochemical Assay. The following applies: 1 nM OGA, 100 μM 4-MUGlcNAc (Km), pH 6.4, 90 minutes at room temperature, 10-point dose-response from 20 μM. On the procedure:
OGA Enzyme Inhibition Biochemical Assay
Recombinant full length human OGA enzyme was purchased from Origene. 4-MUGlCNAc substrate was purchased from Sigma. All other reagents were purchased from Sigma or Fisher. Assay buffer consists of the McIlvaine buffer system, pH 6.4 (0.2M Na2HPO4 mixed with 0.1M citric acid) and 0.01% BSA. Reactions consist of 1 nM OGA, 100 μM 4-MUGlcNAc (Km), and compound in a final volume of 10 μl. Reactions were incubated for 90 minutes at room temperature and quenched with 40 μl of 3M glycine, pH 10 and read on a Perkin Elmer Envision plate reader (Ex: 355 nm/Em: 460 nm). Compounds were tested with a 10-point dose-response starting from 20 μM with a 4-fold dilution. Data was fit using GraphPad Prism using a 4-parameter fit with variable slope.

In patent publication US11459324B2, “O-glycoprotein-2-acetamido-2-deoxy-3-D-glycopyranosidase inhibitors” (BIOGEN MA INC., priority 2018, dated 2022) one finds IC50 data, which are given here for 32 molecules.

A word on the IC50: it is the point on the concentration scale where inhibition reaches its midpoint. Consider `CC(=O)Nc1nc(F)c(CN2CCC[C@H](Cc3cc(C)nc(C)c3)C2)s1` [Example 3-25, (R)-N-(5-((3-((2,6-dimethylpyridin-4-yl)methyl)piperidin-1-yl)methyl)-4-fluorothiazol-2-yl)acetamide], for which the IC50 is under 1 nM. Under `COc1nc(C[C@H]2CCN(Cc3cnc(NC(C)=O)s3)C2)nc(C)c1F` [Example 3-9, (R)-N-(5-((3-((5-fluoro-4-methoxy-6-methylpyrimidin-2-yl)methyl)pyrrolidin-1-yl)methyl)thiazol-2-yl)acetamide] stands under 1 nM. Under `CC(=O)Nc1ncc(CN2CCCC(Cn3cncn3)C2)s1` (centres unmarked) [Example 4-21, N-(5-((3-((1H-1,2,4-triazol-1-yl)methyl)piperidin-1-yl)methyl)thiazol-2-yl)acetamide] stands 38 nM. With `CC(=O)Nc1nc(F)c(CN2C[C@H](Cc3ncc(F)cn3)C[C@H]2C)s1` [Example 3-39, N-(4-fluoro-5-(((2R,4S)-4-((5-fluoropyrimidin-2-yl)methyl)-2-methylpyrrolidin-1-yl)methyl)thiazol-2-yl)acetamide] the figure was 310 nM. Regarding `CC(=O)Nc1ncc(CN2C[C@H](Cc3ncc(F)cn3)CC[C@H]2C)s1` (single isomer, unassigned) [Example 2-27], the IC50 was under 1 nM. Under `CC(=O)Nc1nc(F)c(CN2CCC[C@H](Cc3ncc(F)cn3)C2)s1` [Example 3-48, (R)-N-(4-fluoro-5-((3-((5-fluoropyrimidin-2-yl)methyl)piperidin-1-yl)methyl)thiazol-2-yl)acetamide] stands under 1 nM; under `CC(=O)Nc1ncc(CN2CCC[C@H](Cc3ccnc(C)n3)C2)s1` [Example 3-4, (R)-N-(5-((3-((2-methylpyrimidin-4-yl)methyl)piperidin-1-yl)methyl)thiazol-2-yl)acetamide], under 1 nM; under `CC(=O)Nc1ncc(CN2CCCC(Cc3cscn3)C2)s1` (centres unmarked) [Example 1-38, N-(5-((3-(thiazol-4-ylmethyl)piperidin-1-yl)methyl)thiazol-2-yl)acetamide], 31 nM. With `COc1cc(C[C@H]2CCCN(Cc3sc(NC(C)=O)nc3F)C2)ccn1` [Example 3-19, (R)-N-(4-fluoro-5-((3-((2-methoxypyridin-4-yl)methyl)piperidin-1-yl)methyl)thiazol-2-yl)acetamide] the figure was under 1 nM. Regarding `CC(=O)Nc1ncc(CN2C[C@H](Cc3ncc(F)cn3)CC[C@@H]2C)s1` (single isomer, unassigned) [Example 2-25], the IC50 came to 5 nM. In the case of `CC(=O)Nc1nc(F)c(CN2CCC[C@H](Cc3cc(C)nc(C)n3)C2)s1` [Example 3-21, (R)-N-(5-((3-((2,6-dimethylpyrimidin-4-yl)methyl)piperidin-1-yl)methyl)-4-fluorothiazol-2-yl)acetamide], the IC50 was under 1 nM. With `CCC(=O)Nc1nc(F)c(CN2CCC[C@H](Cc3ncc(F)cn3)C2)s1` [Example 3-17, (R)-N-(4-fluoro-5-((3-((5-fluoropyrimidin-2-yl)methyl)piperidin-1-yl)methyl)thiazol-2-yl)propionamide] the figure was 1.2 nM; with `CC(=O)Nc1ncc(CN2CCC(Cc3cncc(F)c3)C2)s1` (centres unmarked) [Example 1-24, N-(5-((3-((5-fluoropyridin-3-yl)methyl)pyrrolidin-1-yl)methyl)thiazol-2-yl)acetamide], 31 nM. In the case of `CC(=O)Nc1ncc(CN2CCCC(Cn3cnc4ccccc43)C2)s1` (centres unmarked) [Example 4-24, N-(5-((3-((1H-benzo[d]imidazol-1-yl)methyl)piperidin-1-yl)methyl)thiazol-2-yl)acetamide], the IC50 turned out to be 58 nM.

Turning to `COc1ccnc(CC2CCCN(Cc3cnc(NC(C)=O)s3)C2)c1` (centres unmarked) [Example 1-9, N-(5-((3-((4-methoxypyridin-2-yl)methyl)piperidin-1-yl)methyl)thiazol-2-yl)acetamide], the IC50 was 12 nM. With `CC(=O)Nc1ncc(CN2CCCC(Cc3cc(F)ccn3)C2)s1` (centres unmarked) [Example 1-13, N-(5-((3-((4-fluoropyridin-2-yl)methyl)piperidin-1-yl)methyl)thiazol-2-yl)acetamide] the figure was 142 nM; with `CC(=O)Nc1ncc(CN2CCCC(Cc3nccn3C)C2)s1` (centres unmarked) [Example 4-22, N-(5-((3-((1-methyl-1H-imidazol-2-yl)methyl)piperidin-1-yl)methyl)thiazol-2-yl)acetamide], 43 nM; with `CC(=O)Nc1nc(F)c(CN2CC[C@@H](Cc3ncc(F)cn3)C2)s1` [Example 3-36, (S)—N-(4-fluoro-5-((3-((5-fluoropyrimidin-2-yl)methyl)pyrrolidin-1-yl)methyl)thiazol-2-yl)acetamide], 77 nM. On to `CC(=O)Nc1ncc(CN2C[C@H](Cc3ncc(F)cn3)C[C@@H]2C)s1` (single isomer, unassigned) [Example 2-18], for which the IC50 turned out to be 358 nM.

As for `COc1cccc(CC2CCN(Cc3cnc(NC(C)=O)s3)C2)n1` (centres unmarked) [Example 1-18, N-(5-((3-((6-methoxypyridin-2-yl)methyl)pyrrolidin-1-yl)methyl)thiazol-2-yl)acetamide], the IC50 worked out at 17 nM. Consider `CC(=O)Nc1nc(F)c(CN2CC[C@H](Cc3cc(C)ncc3F)C2)s1` [Example 3-28, (S)—N-(4-fluoro-5-((3-((5-fluoro-2-methylpyridin-4-yl)methyl)pyrrolidin-1-yl)methyl)thiazol-2-yl)acetamide], for which the IC50 was 8.3 nM. Under `CC(=O)Nc1nc(F)c(CN2CCC(C(C)c3ncc(F)cn3)C2)s1` (centres unmarked) [Example 2-51, N-(4-fluoro-5-((3-(1-(5-fluoropyrimidin-2-yl)ethyl)pyrrolidin-1-yl)methyl)thiazol-2-yl)acetamide] stands 1 nM. On to `CC(=O)Nc1ncc(CN2CCC(Cc3ncc(F)cn3)C2C)s1` (centres unmarked) [Example 2-42, N-(5-((3-((5-fluoropyrimidin-2-yl)methyl)-2-methylpyrrolidin-1-yl)methyl)thiazol-2-yl)acetamide], for which the IC50 was determined as 250 nM. With `CC(=O)Nc1ncc(CN2CCCC(Cc3ncc(F)cn3)C2C)s1` (centres unmarked) [Example 2-41, N-(5-((3-((5-fluoropyrimidin-2-yl)methyl)-2-methylpiperidin-1-yl)methyl)thiazol-2-yl)acetamide] the figure was 510 nM; with `CC(=O)Nc1ncc(CN2CC(Cc3ncc(F)cn3)CC[C@@H]2C(F)(F)F)s1` (some centres unmarked) [Example 2-50], 270 nM.

With `COc1cccc(CC2CCCN(Cc3cnc(NC(C)=O)s3)C2)n1` (centres unmarked) [Example 1-6, N-(5-((3-((6-methoxypyridin-2-yl)methyl)piperidin-1-yl)methyl)thiazol-2-yl)acetamide], the IC50 amounted to 2 nM. Regarding `COc1ccc(CC2CCCN(Cc3cnc(NC(C)=O)s3)C2)cn1` (centres unmarked) [Example 1-11, N-(5-((3-((6-methoxypyridin-3-yl)methyl)piperidin-1-yl)methyl)thiazol-2-yl)acetamide], the IC50 turned out to be 4 nM. Under `CC(=O)Nc1ncc(CN2CC(Cc3ncc(F)cn3)CC(F)(F)C2)s1` (centres unmarked) [Example 2-13, N-(5-((3,3-difluoro-5-((5-fluoropyrimidin-2-yl)methyl)piperidin-1-yl)methyl)thiazol-2-yl)acetamide] stands 450 nM; under `CC(=O)Nc1ncc(CN2CCCC(Cn3nc(C)c(C)c3C)C2)s1` (centres unmarked) [Example 4-4, N-(5-((3-((3,4,5-trimethyl-1H-pyrazol-1-yl)methyl)piperidin-1-yl)methyl)thiazol-2-yl)acetamide], 680 nM. Under `CC(=O)Nc1nc(F)c(CN2CC[C@H](Cc3cc(C)nc(C)n3)C2)s1` [Example 3-29, (R)-N-(5-((3-((2,6-dimethylpyrimidin-4-yl)methyl)pyrrolidin-1-yl)methyl)-4-fluorothiazol-2-yl)acetamide] stands 10 nM. Under `CC(=O)Nc1ncc(CN2CCCC(Cn3cc(C4CCC4)cn3)C2)s1` (centres unmarked) [Example 4-5, N-(5-((3-((4-cyclobutyl-1H-pyrazol-1-yl)methyl)piperidin-1-yl)methyl)thiazol-2-yl)acetamide] stands 660 nM; under `COc1cc(C[C@@H]2C[C@H](C)N(Cc3sc(NC(C)=O)nc3F)C2)ncn1` [Example 3-44, N-(4-fluoro-5-(((2S,4S)-4-((6-methoxypyrimidin-4-yl)methyl)-2-methylpyrrolidin-1-yl)methyl)thiazol-2-yl)acetamide], under 1 nM.
